Laboratory results: ChEMBL document CHEMBL5729389, “1,4-diphenyl-1H-imidazole and 2,4-diphenylthiazole derivatives and preparation method therefor and use thereof” (2022)

The compounds below were run against Toll-like receptor 1/2 (Homo sapiens, UniProt O60603+Q15399) (assay: TBD: TBD).
Chain of Toll-like receptor 1/2 (O60603 whole entry): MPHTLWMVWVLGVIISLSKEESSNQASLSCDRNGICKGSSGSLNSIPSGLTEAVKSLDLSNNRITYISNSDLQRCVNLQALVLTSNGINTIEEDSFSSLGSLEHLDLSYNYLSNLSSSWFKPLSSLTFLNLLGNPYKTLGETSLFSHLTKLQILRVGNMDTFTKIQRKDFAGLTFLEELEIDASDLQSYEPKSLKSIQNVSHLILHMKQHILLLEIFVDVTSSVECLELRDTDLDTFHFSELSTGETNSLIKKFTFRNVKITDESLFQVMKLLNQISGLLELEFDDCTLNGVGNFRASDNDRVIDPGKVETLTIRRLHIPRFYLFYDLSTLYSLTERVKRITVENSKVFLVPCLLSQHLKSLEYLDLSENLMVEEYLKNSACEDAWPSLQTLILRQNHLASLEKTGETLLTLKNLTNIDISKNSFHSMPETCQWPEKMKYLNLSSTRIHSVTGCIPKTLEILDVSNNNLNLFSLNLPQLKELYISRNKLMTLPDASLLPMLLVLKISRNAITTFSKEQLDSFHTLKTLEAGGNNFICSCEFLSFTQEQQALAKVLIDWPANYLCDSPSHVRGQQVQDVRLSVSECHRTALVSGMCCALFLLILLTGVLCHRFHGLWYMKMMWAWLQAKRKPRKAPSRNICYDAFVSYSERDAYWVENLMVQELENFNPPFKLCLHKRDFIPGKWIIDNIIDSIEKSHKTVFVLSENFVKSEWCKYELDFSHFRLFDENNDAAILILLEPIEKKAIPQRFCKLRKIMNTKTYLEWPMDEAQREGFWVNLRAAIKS
Chain of Toll-like receptor 1/2 (Q15399 whole entry): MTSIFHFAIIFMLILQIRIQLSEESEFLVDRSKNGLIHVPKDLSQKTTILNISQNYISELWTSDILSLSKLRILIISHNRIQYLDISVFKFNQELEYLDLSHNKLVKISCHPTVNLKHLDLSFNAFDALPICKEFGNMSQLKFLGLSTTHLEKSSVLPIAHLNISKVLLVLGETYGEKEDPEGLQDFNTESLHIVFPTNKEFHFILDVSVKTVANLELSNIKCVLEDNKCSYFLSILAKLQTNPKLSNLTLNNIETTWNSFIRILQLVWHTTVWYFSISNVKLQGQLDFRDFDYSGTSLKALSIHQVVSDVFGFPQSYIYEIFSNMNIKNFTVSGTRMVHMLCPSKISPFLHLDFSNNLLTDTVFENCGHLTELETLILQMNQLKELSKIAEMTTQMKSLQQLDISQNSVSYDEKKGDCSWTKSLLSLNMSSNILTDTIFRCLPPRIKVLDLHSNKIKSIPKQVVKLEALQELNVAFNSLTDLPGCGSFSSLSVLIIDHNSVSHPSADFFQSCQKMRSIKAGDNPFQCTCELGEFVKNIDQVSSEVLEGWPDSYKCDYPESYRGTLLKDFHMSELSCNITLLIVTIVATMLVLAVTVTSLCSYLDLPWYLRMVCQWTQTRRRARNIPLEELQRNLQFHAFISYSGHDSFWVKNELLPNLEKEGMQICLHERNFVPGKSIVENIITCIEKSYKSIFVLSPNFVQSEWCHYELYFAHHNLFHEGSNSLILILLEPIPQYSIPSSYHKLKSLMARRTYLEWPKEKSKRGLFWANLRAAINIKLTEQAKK
Assay type: protein-complex assay
For `CNc1ccc([N+](=O)[O-])cc1-n1cnc(-c2ccc(C(F)(F)F)cc2OS(=O)(=O)O)c1`, the EC50 was 0.0491 µM. In the case of `CNc1ccc([N+](=O)[O-])cc1-n1cnc(-c2ccc(C(F)(F)F)cc2OCCN)c1`, the EC50 is reported as over 1 µM. `COc1ccc(-c2nc(-c3ccc(C(F)(F)F)cc3O)cs2)cc1` was tested, and the EC50 was over 1 µM. `Oc1cc(C(F)(F)F)ccc1-c1csc(-c2ccc(C(F)(F)F)cc2)n1` showed an EC50 of over 1 µM. `FC(F)(F)c1ccc(-c2csc(-c3ccc(C(F)(F)F)cc3)n2)cc1` was tested, and the EC50 was over 1 µM. In the case of `O=[N+]([O-])c1ccc(Cl)c(-c2nc(-c3ccc(C(F)(F)F)cc3O)cs2)c1`, the EC50 is reported as over 1 µM. Compound `O=[N+]([O-])c1ccc(-c2nc(-c3ccc(C(F)(F)F)cc3)cs2)cc1` has an EC50 of over 1 µM.
